From US20070264191A1, “Materials and Methods Relating to the Treatment of Glioblastomas” (priority 2004, published 2007)
Peptide text beside a SMILES is read from it.

What was measured:
[1] = tested on: SF767 glioma cells; assay: Transfection with peptide/pNGVL-Luc complexes, luciferase activity, SF767; type: cell-based, human
Method: The formation and transfection of peptide/DNA complexes were carried out according to Patel et al. with slight modifications. […] […] […] The peptide was added dropwise to the DNA solution while vortexing gently (Stuart Scientific, UK). This mixture was allowed to incubate at room temperature (RT) for 30 min. After 30 min, the mixture was diluted to 4 μg/ml DNA with DMEM in the presence of 100 μM of chloroquine, and added to cells.
The human tumor cell lines, dGli36, SF767, U251, A549, HeLa, HepG2, and CNE2 were cultured in DMEM supplemented with 10% fetal bovine serum (FBS) (Hyclone Laboratories, Logan, Utah). For transfection, 3×10^5 cells were seeded into each well of a six-well plate (Nunc, Roskilde, Denmark). After culturing the cells overnight, the cells were washed twice with PBS. Freshly prepared peptide/DNA complexes were added into each well and incubated for 2 h at 37° C. For transfection performed in the presence of serum, FBS was added to a final concentration of 10% directly after addition of peptide/DNA complexes to each well. The reporter gene activity was assayed after 24 h or 48 h.
Cells were harvested from 6-well plates 24 h or 48 h following transfection, washed, resuspended in 120 μl of Tris-HCl (pH 7.8), and freeze-thawed three times. Cell debris was discarded following centrifugation at 14,000 g at 4° C. for 10 min. One hundred μl of the supernatant collected was used for assaying luciferase activity using the Auto-Lumat LB952 luminometer (EG&G Berthold, Bad Wildbad, Germany). Five microliter of the supernatant collected was used for the determination of protein concentration using the Bio-Rad protein assay dye reagent (Bio-Rad Laboratories, Hercules, USA) with the Ultrospec 3000 UV/visible spectrophotometer (Amersham Biosciences AB, Uppsala, Sweden).

[2] = tested on: other glioma cells; settings: Spear et al., 2001; cited from earlier work
[3] = tested on: U87MG glioma cell line; settings: Spear et al., 2001; cited from earlier work
[4] = tested on: non-glioma cell lines (A549, HepG2, HK1); assay: In vitro fluorescent peptide binding assay, non-glioma cell lines; design: species or system human; settings: lissamine-rhodamine conjugated peptide, 100 ng, 20 min, 37° C., FIG. 4
Method: (§1) For in vitro binding assay, 1×10^5 cells were seeded into each well of a 24-well dish (Nunc, Roskilde, Denmark). After culturing the cells overnight at 37° C., the cells were washed once with PBS, followed by incubating in blocking buffer containing PBS with 1% BSA at room temperature for 1 h. The cells were washed twice with PBS. One hundred nanogram of lissamine-rhodamine conjugated peptide (Mimotopes, Victoria, Australia) were added to the blocking buffer containing 0.1% sodium azide, and incubated with the cells at 37° C. for 20 min. This is followed by 5 washes of PBS with 0.1% Tween-20 at RT for 5 min intervals. The cells were then fix in 4% paraformaldehyde, followed by counterstaining using FITC-phalloidin (Sigma-Aldrich Corp., St. Louis, Mo.) and mounted. Images were captured digitally and analyzed using LSM 510 confocal microscope (Carl Zeiss Microscopy, Gottingen, Germany) with appropriate filters.
(§2) To determine the direct specific binding of the (K16)-MG11 peptide to cell surface of glioma cells, (K16)-MG11 peptide was conjugated to lissamine rhodamine. After incubating the conjugated (K16)-MG11 to the various tumor cell lines, SF767, U251MG, M059K, A549, HepG2, and HK1, for 20 minutes at 37° C., the cells were examined under confocal microscopy and the level of fluorescence detected were compared between glioma and non-glioma cells. […]

[5] = tested on: SF767, U251MG, and M059K human glioma cell lines; assay: In vitro fluorescent peptide binding assay, glioma cell lines; settings: lissamine-rhodamine conjugated peptide, 100 ng, 20 min, 37° C., FIG. 4
Method: as §1, §2

[6] = tested on: SF767 glioma xenograft; assay: In vivo fluorescent peptide binding assay, intratumoral injection; settings: SCID mice, 100 μg lissamine-rhodamine conjugated peptide intratumorally, 20 min, FIG. 6
Method: SF767-tumor bearing mice were randomized into 2 groups (2 per group). Fifty microliter of 100 μg of lissamine rhodamine conjugated (K16)-MG11 or (K16)-H42 was injected intratumorally into 2 mice harboring the tumor, and allowed to circulate for 20 min. After 20 min, the mice were anethesized and perfused through the heart with PBS followed by 4% paraformaldehyde. The tumor were dissected and prepared for cryostat sections. The sections were then counterstained in FITC-phalloidin and mounted. Images were examined using LSM 510 meta confocal microscope (Carl Zeiss Microscopy, Göttingen, Germany) with appropriate filters.
After 20 min of circulation, the mouse bearing the SF767 glioma xenograft was perfused and tumor was harvested. The tumor sections were counterstained with FITC-labeled phalloidin, which stains F-actin, to determine the cell surface.

Question: For `CC[C@H](C)[C@H](NC(=O)[C@H](CO)NC(=O)[C@H](CCCCN)NC(=O)[C@H](CCCCN)NC(=O)[C@H](CCCCN)NC(=O)[C@H](CCCCN)NC(=O)[C@H](CCCCN)NC(=O)[C@H](CCCCN)NC(=O)[C@H](CCCCN)NC(=O)[C@H](CCCCN)NC(=O)[C@H](CCCCN)NC(=O)[C@H](CCCCN)NC(=O)[C@H](CCCCN)NC(=O)[C@H](CCCCN)NC(=O)[C@H](CCCCN)NC(=O)[C@H](CCCCN)NC(=O)[C@H](CCCCN)NC(=O)[C@@H](N)CCCCN)C(=O)N1CCC[C@H]1C(=O)N[C@H](C(=O)N[C@@H](CCCCN)C(=O)N[C@@H](Cc1ccccc1)C(=O)N[C@@H](CC(N)=O)C(=O)N[C@@H](CCCCN)C(=O)N1CCC[C@H]1C(=O)N[C@@H](CC(C)C)C(=O)N[C@@H](Cc1c[nH]c2ccccc12)C(=O)N[C@@H](C)C(=O)N[C@H](C(=O)N[C@@H](Cc1ccccc1)C(=O)N1CCC[C@H]1C(=O)N1CCC[C@H]1C(=O)N[C@@H](CCCNC(=N)N)C(=O)N1CCC[C@H]1C(=O)N1CCC[C@H]1C(=O)N[C@@H](Cc1c[nH]c2ccccc12)C(=O)N[C@@H](CC(C)C)C(=O)O)[C@@H](C)O)C(C)C` [(K16)-MG11, poly-L-lysine-SIPVKFNKP-MG11] (H-KKKKKKKKKKKKKKKKSIPVKFNKPLWATFPPRPPWL-OH), which “toxicity to treated cells” value ([1]; peptide: DNA ratios of 10:1 and 20:1) is on record?
Answer: toxicity could be detected

Question: For MCPKHPLGC, which binding [2] is on record?
Answer: did not bind

Question: What about the binding specificity [3] of the same compound?
Answer: specific for U87MG glioma cell line

Question: Which “cell surface fluorescence (confocal microscopy)” value [4] does the source give for poly-L-lysine-SIPVKFNKP-H42 [(K16)-H42] here?
Answer: non-specific red fluorescence was observed in all cell lines

Question: What about the “cell surface fluorescence (confocal microscopy)” value [5] of the same compound?
Answer: non-specific red fluorescence was observed in all cell lines

Question: What about the “red fluorescence in tumor cryostat sections” value [6] of the same compound?
Answer: red fluorescent was not detected

Question: And the luciferase expression ([1]; complex with pNGVL-Luc, chloroquine, 48 h post transfection, FIG. 3C)?
Answer: 8444 RLU/μg

Question: What about the “luciferase expression at various peptide to DNA ratios” value ([1]; ratios 1:2, 2:1, 10:1, 20:1, 24 h post-transfection, FIG. 3A) of the same compound?
Answer: no significant binding could be detected
